Data taken from the NIST ThermoML archive (doi:10.1021/acs.jced.8b00812).

Settings: Liquid; for viscosity: Capillary tube (Ostwald / Ubbelohde) method; for mass density: Vibrating tube method

CCCCCCCCO [octan-1-ol]
Settings	mass density [kg/m3]	viscosity [mPa·s]
298.15 K, 2000 kPa	823.6	7.363
298.15 K, 4010 kPa	824.8	7.542
298.15 K, 6000 kPa	826	7.702
298.15 K, 8000 kPa	827.2	7.865
298.15 K, 10000 kPa	828.4	8.031
298.15 K, 13010 kPa	830.1	8.3
298.15 K, 16010 kPa	831.8	8.568
298.15 K, 18990 kPa	833.4	8.825
298.15 K, 22010 kPa	835	9.112
298.15 K, 25010 kPa	836.6	9.397
298.15 K, 28010 kPa	838.3	9.668
298.15 K, 30010 kPa	839.3	9.866
303.15 K, 1990 kPa	819.4	6.327
303.15 K, 3990 kPa	820.6	6.481
303.15 K, 5980 kPa	821.9	6.632
303.15 K, 10010 kPa	824.4	6.941
303.15 K, 16020 kPa	827.9	7.4
303.15 K, 19030 kPa	829.7	7.63
303.15 K, 25000 kPa	833	8.087
303.15 K, 29980 kPa	835.6	8.468
303.16 K, 7980 kPa	823.1	6.785
303.16 K, 13000 kPa	826.2	7.169
303.16 K, 22010 kPa	831.3	7.858
303.16 K, 28000 kPa	834.6	8.316
313.15 K, 1970 kPa	812.3	4.516
313.15 K, 4000 kPa	813.6	4.627
313.15 K, 6010 kPa	815	4.737
313.15 K, 8000 kPa	816.3	4.846
313.15 K, 10010 kPa	817.5	4.955
313.15 K, 13030 kPa	819.4	5.12
313.15 K, 15980 kPa	821.2	5.281
313.15 K, 18990 kPa	823	5.446
313.15 K, 21990 kPa	824.8	5.61
313.15 K, 25000 kPa	826.5	5.774
313.15 K, 27980 kPa	828.2	5.937
313.15 K, 29990 kPa	829.3	6.047
323.15 K, 2010 kPa	805.6	3.262
323.15 K, 4010 kPa	807	3.348
323.15 K, 6010 kPa	808.4	3.427
323.15 K, 8000 kPa	809.7	3.499
323.15 K, 10010 kPa	811.1	3.573
323.15 K, 13020 kPa	813	3.688
323.15 K, 16020 kPa	814.9	3.797
323.15 K, 19010 kPa	816.8	3.91
323.15 K, 22000 kPa	818.6	4.03
323.15 K, 25010 kPa	820.4	4.149
323.15 K, 28010 kPa	822.1	4.264
323.15 K, 30020 kPa	823.3	4.343

CCCCCCCCCO [nonan-1-ol]
Settings	mass density [kg/m3]	viscosity [mPa·s]
298.15 K, 1990 kPa	825.5	9.285
298.15 K, 3990 kPa	826.7	9.511
298.15 K, 6000 kPa	828	9.746
298.15 K, 8010 kPa	829.2	9.958
298.15 K, 10010 kPa	830.5	10.17
298.15 K, 13000 kPa	832.2	10.51
298.15 K, 16000 kPa	833.9	10.85
298.15 K, 19010 kPa	835.5	11.2
298.15 K, 21990 kPa	837.1	11.56
298.15 K, 25000 kPa	838.7	11.93
298.15 K, 28020 kPa	840.2	12.28
298.15 K, 30020 kPa	841.1	12.51
303.14 K, 27980 kPa	836.9	11.13
303.15 K, 2010 kPa	822	8.424
303.15 K, 4010 kPa	823.2	8.633
303.15 K, 6020 kPa	824.5	8.843
303.15 K, 8030 kPa	825.7	9.053
303.15 K, 9990 kPa	826.9	9.257
303.15 K, 12980 kPa	828.7	9.568
303.15 K, 15970 kPa	830.4	9.88
303.15 K, 19020 kPa	832.1	10.2
303.15 K, 22010 kPa	833.8	10.51
303.15 K, 25000 kPa	835.4	10.82
303.15 K, 30000 kPa	837.9	11.34
313.15 K, 2000 kPa	814.9	6.381
313.15 K, 3970 kPa	816.3	6.536
313.15 K, 6020 kPa	817.6	6.699
313.15 K, 7990 kPa	818.9	6.854
313.15 K, 10020 kPa	820.2	7.015
313.15 K, 13000 kPa	822	7.25
313.15 K, 16000 kPa	823.8	7.487
313.15 K, 18980 kPa	825.6	7.723
313.15 K, 22000 kPa	827.3	7.961
313.15 K, 25000 kPa	829	8.198
313.15 K, 28010 kPa	830.6	8.436
313.15 K, 29990 kPa	831.7	8.592
323.15 K, 2010 kPa	808.3	4.745
323.15 K, 4020 kPa	809.7	4.859
323.15 K, 6020 kPa	811	4.976
323.15 K, 8010 kPa	812.3	5.09
323.15 K, 10010 kPa	813.7	5.202
323.15 K, 13010 kPa	815.7	5.376
323.15 K, 16010 kPa	817.5	5.539
323.15 K, 19000 kPa	819.3	5.716
323.15 K, 22010 kPa	821.1	5.892
323.15 K, 25000 kPa	822.9	6.07
323.15 K, 28000 kPa	824.6	6.247
323.15 K, 30000 kPa	825.7	6.373
